Test systems include A549 NSCLC; OVCAR-8 ovarian; UACC-62 melanoma; MCF7 breast; MDA-MB-435; HOP-62 NSCLC; K-562 leukemia; SK-MEL-28 melanoma; NCI-H23 lung; PC-3 prostate.
Assay in all cases: inhibition of tumour cell growth, NCI panel, 48 h

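96-well plates; 48 h exposure; 5 concentrations. Endpoints by linear interpolation between flanking doses. Not reached: highest tested concentration assigned. Here, GI50 denotes the concentration required for 50% inhibition of growth. TGI is the concentration that stops growth completely.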 Where only a bound is given, the exact number is not on record here.

Regarding `NC(=Nc1c([N+](=O)[O-])cnc2ccccc12)N1CCOCC1`, the TGI in the experiment with A549 NSCLC, in the experiment on OVCAR-8 ovarian, with UACC-62 melanoma, with MCF7 breast, in the experiment on MDA-MB-435 and with HOP-62 NSCLC was over 100 µM in each case. Moreover, the TGI with K-562 leukemia, in the experiment with SK-MEL-28 melanoma, in the experiment on NCI-H23 lung and with PC-3 prostate was over 100 µM in each case.

On to `CC(O)CCC(=O)c1ccoc1` (centres undefined), for which the TGI is over 7450 µM in the experiment on A549 NSCLC; over 10000 µM with OVCAR-8 ovarian; over 10000 µM in the experiment with UACC-62 melanoma; over 10000 µM in the experiment with MCF7 breast; over 10000 µM in the experiment with MDA-MB-435; over 10000 µM in the experiment on HOP-62 NSCLC. The TGI with K-562 leukemia is over 10000 µM; in the experiment on SK-MEL-28 melanoma it was over 8380 µM; in the experiment on NCI-H23 lung, over 10000 µM; in the experiment on PC-3 prostate, over 10000 µM.

For `Cc1cc(I)cc(CN(C)CCCN2CCCCCCC2)c1O`, the GI50 in the experiment on A549 NSCLC was 20.1 µM; in the experiment with OVCAR-8 ovarian, 19.8 µM; in the experiment with UACC-62 melanoma it was 6 µM; in the experiment on MCF7 breast it was 14.2 µM; in the experiment on MDA-MB-435, 13.2 µM; with HOP-62 NSCLC it was 16.4 µM. The GI50 is 2.46 µM with K-562 leukemia, 15.3 µM with SK-MEL-28 melanoma, 18.1 µM in the experiment on NCI-H23 lung and 15.8 µM with PC-3 prostate. For the same compound, the TGI in the experiment on A549 NSCLC came out at 45.5 µM; in the experiment on OVCAR-8 ovarian it was 43.4 µM; in the experiment with UACC-62 melanoma, 18 µM; with MCF7 breast, 30.6 µM; in the experiment with MDA-MB-435 it was 30.1 µM; in the experiment on HOP-62 NSCLC, 32.2 µM. The TGI in the experiment on K-562 leukemia worked out at 23.8 µM; in the experiment with SK-MEL-28 melanoma, 31.2 µM; in the experiment on NCI-H23 lung, 48.7 µM; with PC-3 prostate, 32.7 µM.

Take `O=C(CNc1ccc(Cl)cc1)Nc1ccc(-c2nc3ccccc3s2)cc1`: the GI50 in the experiment on A549 NSCLC is 8.1 µM; with OVCAR-8 ovarian, 6.15 µM; in the experiment with UACC-62 melanoma, 2.63 µM; in the experiment on MCF7 breast, 0.0697 µM; with MDA-MB-435, 3.91 µM; in the experiment with HOP-62 NSCLC, 8.62 µM. Also, the GI50 with K-562 leukemia was 1.95 µM; with SK-MEL-28 melanoma, 5.67 µM; in the experiment on NCI-H23 lung, 2.9 µM; in the experiment with PC-3 prostate, 1.85 µM. For the same compound, the TGI stood at 27.4 µM in the experiment with A549 NSCLC; 17.8 µM with OVCAR-8 ovarian; 8.3 µM in the experiment with UACC-62 melanoma; 6.5 µM with MCF7 breast; 16.6 µM in the experiment with MDA-MB-435; 23.8 µM in the experiment with HOP-62 NSCLC. The TGI with K-562 leukemia is over 100 µM; in the experiment on SK-MEL-28 melanoma, 11.6 µM; in the experiment on NCI-H23 lung, 8.8 µM; in the experiment on PC-3 prostate, 4.41 µM.

For `CC(C)=CCNc1ncnc2c1ncn2C1OC(CO)C(O)C1O` (centres undefined), the GI50 in the experiment on A549 NSCLC was 2.85 µM; in the experiment with OVCAR-8 ovarian it was 0.496 µM; with MCF7 breast it was 0.624 µM; with MDA-MB-435, 3.26 µM; in the experiment with HOP-62 NSCLC it was 1.3 µM; in the experiment with K-562 leukemia it was 0.703 µM. Also, the GI50 in the experiment with SK-MEL-28 melanoma is over 346 µM; in the experiment with NCI-H23 lung it was 2.81 µM; in the experiment with PC-3 prostate, 0.616 µM. In addition, the TGI with A549 NSCLC is 299 µM; in the experiment with OVCAR-8 ovarian, 3.34 µM; with UACC-62 melanoma it was over 1000 µM; in the experiment with MCF7 breast, 12.3 µM; in the experiment on MDA-MB-435, over 1000 µM; in the experiment on HOP-62 NSCLC it was 6.7 µM. In addition, the TGI is over 380 µM with K-562 leukemia, over 1000 µM in the experiment with SK-MEL-28 melanoma, 125 µM in the experiment on NCI-H23 lung and 31 µM in the experiment on PC-3 prostate.

Take `CCC(C)n1ncn(-c2ccc(N3CCN(c4ccc(OCC5COC(Cn6cncn6)(c6ccc(Cl)cc6Cl)O5)cc4)CC3)cc2)c1=O` (centres undefined): the GI50 in the experiment with A549 NSCLC was 35.8 µM; in the experiment with OVCAR-8 ovarian it was 20.2 µM; with UACC-62 melanoma, 17.6 µM; in the experiment with MCF7 breast, 22.2 µM; with MDA-MB-435, over 100 µM; in the experiment on HOP-62 NSCLC, 8.97 µM. Besides, the GI50 was 9.76 µM in the experiment with K-562 leukemia, over 100 µM in the experiment with SK-MEL-28 melanoma, 27.8 µM in the experiment with NCI-H23 lung and 3.96 µM with PC-3 prostate. Besides, the TGI was over 100 µM with A549 NSCLC; over 100 µM with OVCAR-8 ovarian; over 100 µM in the experiment on UACC-62 melanoma; over 100 µM in the experiment with MCF7 breast; over 100 µM in the experiment on MDA-MB-435; 37 µM with HOP-62 NSCLC. Besides, the TGI in the experiment on K-562 leukemia, in the experiment on SK-MEL-28 melanoma, in the experiment on NCI-H23 lung and in the experiment with PC-3 prostate was over 100 µM each time.

Regarding `CC(CCC=O)CCOCc1ccccc1` (centres undefined), the TGI is over 100 µM with A549 NSCLC; over 100 µM with OVCAR-8 ovarian; over 100 µM in the experiment with UACC-62 melanoma; 22.7 µM in the experiment on MCF7 breast; over 100 µM with MDA-MB-435; over 100 µM in the experiment on HOP-62 NSCLC. For the same compound, the TGI in the experiment with K-562 leukemia, in the experiment with SK-MEL-28 melanoma, with NCI-H23 lung and with PC-3 prostate was over 100 µM each time.

Take `Cc1ccc(C)c(C2=C(c3cn(C)c4ccccc34)C(=O)NC2=O)c1`: the GI50 in the experiment on A549 NSCLC is 18.9 µM; in the experiment with OVCAR-8 ovarian, over 24.2 µM; in the experiment on UACC-62 melanoma, over 25 µM; with MCF7 breast, 6.81 µM; with MDA-MB-435, 24 µM; with HOP-62 NSCLC, 12.1 µM. Besides, the GI50 in the experiment with K-562 leukemia is 15.1 µM; in the experiment with SK-MEL-28 melanoma, over 25 µM; with NCI-H23 lung, over 25 µM; in the experiment with PC-3 prostate, 13.8 µM. Further, the TGI in the experiment with A549 NSCLC, in the experiment on OVCAR-8 ovarian, in the experiment on UACC-62 melanoma, with MCF7 breast, with MDA-MB-435 and in the experiment on HOP-62 NSCLC was over 25 µM in each case. Besides, the TGI in the experiment with K-562 leukemia, with SK-MEL-28 melanoma, in the experiment with NCI-H23 lung and with PC-3 prostate was over 25 µM in each case.

The values above are taken from PubChem BioAssay (NCI).
